Assay results from patent US20250152550A1, “LYMPH-TARGETING FORMULATIONS” (Monash University, priority 2021, published 2025).

How the values were obtained:
[1] = Lymph and plasma pharmacokinetics of orlistat in acute pancreatitis rats; format: in vivo, rat; conditions: AP rats relative to healthy animals
Description: FIG. 4 illustrates lymph and plasma pharmacokinetics of orlistat in lymph diverted or lymph intact sham or acute pancreatitis (AP) rats intestinally administered a blank long chain fatty acid (LC-FA), orlistat LC-FA (LC-FA+O), or orlistat lipid free formulation (LFF+O). Dose-normalised lymph concentration of total orlistat (open and closed ring forms) over time (Panel A), cumulative lymphatic transport of total orlistat (open and closed ring forms) over time (Panel B), gut-lymph concentrations of triglyceride (TG) (Panel C), cumulative TG mass transport in gut-lymph (Panel D), dose-normalised plasma concentrations of total orlistat (open and closed ring forms) (Panel E), and lymph to plasma concentration ratios of orlistat (Panel F) over time. […]
In the previous study it was determined in healthy rats that orlistat administration in a long chain fatty acid (LC-FA) formulation promotes lymphatic drug transport when compared to administration in a lipid free formulation (LFF). […] Blood pressure and heart rate were also determined. […]
After initiation of dosing of the formulations, lymph was collected continuously for the duration of the experiment (i.e. up to 4 h post initiation of formulation dosing) into pre-weighed 1.5 ml tubes that were kept in an ice bath. Lymph collection tubes were changed every hour and lymph flow was determined gravimetrically. […]

[2] = cited from earlier work
[3] = format: in vivo; conditions: intestinal and IV groups; below the limit of quantitation
Description: Systemic availability was determined in lymph-intact anaesthetised rats with cannulas inserted into the carotid artery and duodenum for blood collection and formulation infusion, respectively. To enable the calculation of absolute bioavailability an additional group was administered orlistat intravenously via a jugular vein cannula, and blood samples collected from a carotid artery cannula over time.
To enable determination of systemic availability following intestinal dosing of selected formulations (i.e. the 40 mg oleic acid and olive oil formulations containing 8 mg/kg orlistat) a separate group of lymph-intact animals (i.e. non-lymph cannulated) were cannulated at the duodenum and carotid artery to enable formulation administration and blood collection, respectively. After surgery the rats were hydrated via intraduodenal infusion of 2.8 ml/h normal saline for at least 30 min, followed by intraduodenal infusion of the formulations at 2.8 ml/h for 2 h. […]
For the plasma pharmacokinetic studies, the absolute bioavailability following intestinal delivery of orlistat was calculated from:
Where AUC0-8h intestinally administered and IV administered are the area under the plasma concentration time curves from time 0 to 8 h after intestinal and IV administration, respectively. Plasma AUCs were calculated using the linear trapezoidal method.

[4] = healthy volunteers, oral, standard capsule formulations

CCCCCCCCCCC[C@@H](C[C@@H]1OC(=O)[C@H]1CCCCCC)OC(=O)[C@H](CC(C)C)NC=O [orlistat]
Gut-lymph uptake of orlistat in animals with AP [1]: attenuated relative to healthy animals | Dose recovered in the faeces [2, 4]: more than 97% | Dose recovered in the faeces in a non-metabolised form [2, 4]: 83.1% | Absorption and bioavailability of orlistat ([2]; oral administration in standard formulations, fed or fasted state): < 1 % dose | Plasma concentration of closed ring form of orlistat [3]: < 0.05 µg/mL
